A short description of experiment [1]: (§1) MMV: Anti-babesial activity assay. Parasite pRBCs at 1% parasitemia were cultivated in 100 ul with 96-well plates at 2.5% and 5% hematocrits. The parasites were cultivated in triplicate for 4 days without replacement of the medium for each concentration of the compound. In kind it is functional, Babesia bovis.
Experiment [2] in a line: as §1. In kind it is functional, Babesia bigemina.
Experiment [3] can be described thus: as §1. In kind it is functional, Babesia equi.
Experiment [4] is described as follows: as §1. In kind it is functional, Babesia caballi.

By IC50 is commonly meant the concentration at which inhibition is half-maximal. A lower IC50 goes with greater potency. With `COc1ccc(N2CCN(C(CNC(=O)C3CCCCC3)c3ccc4c(c3)OCO4)CC2)cc1` (stereo not drawn), the concentration for half-maximal inhibition (IC50) in experiment [1] was determined as 24.9 µM; in experiment [2], 7.67 µM; in experiment [3], 13 µM; in experiment [4] it was 7.67 µM.

On to `COc1ccccc1C(=O)ON=C(N)Cc1cccc2ccccc12`, for which the IC50 in experiment [1] stood at 22.4 µM; in experiment [2], 19.8 µM; in experiment [3], 7.65 µM; in experiment [4], 6.86 µM.

Consider `COc1cccc(C=Cc2nc(=O)c3ccccc3o2)c1OC`, for which the IC50 is above 25 µM in experiment [1], 20 µM in experiment [2], 16.5 µM in experiment [3] and 22.3 µM in experiment [4].

Consider `Clc1ccc2[nH]c3c(NCCCN4CCOCC4)ncnc3c2c1`, for which the half-inhibitory concentration (IC50) in experiment [1] amounted to 7.75 µM; in experiment [2], 1.1 µM; in experiment [3] it was 7.38 µM; in experiment [4], 1 µM.

Take `COc1ccc(C(O)(CCC(C)C)C(CN2CCOCC2)c2ccc(Cl)cc2)cc1` (stereo not drawn): the IC50 in experiment [1] is 0.091 µM; in experiment [2] it was 0.068 µM; in experiment [3], 3.45 µM; in experiment [4], 14.8 µM.

Regarding `COc1ccc2nc(C)cc(Nc3ccccc3O)c2c1`, the IC50 in experiment [1] was 25 µM; in experiment [2], 15.3 µM; in experiment [3] it was 8.83 µM; in experiment [4], 1 µM.

Take `O=C(Nc1ccc(-c2nc3cc(NC(=O)c4ccc(Cl)cc4)ccc3[nH]2)cc1)c1ccc(Cl)cc1`: the IC50 was 17 µM in experiment [1], 5.09 µM in experiment [2], 13.3 µM in experiment [3] and 9.1 µM in experiment [4].

Take `Oc1c(C(Nc2ccccn2)c2cccc(Oc3ccccc3)c2)ccc2cccnc12` (stereo not drawn): the IC50 in experiment [1] is 6.72 µM; in experiment [2], 3.34 µM; in experiment [3], 12.6 µM; in experiment [4], 10 µM.

On to `c1ccc2c(NCCc3c[nH]c4ccccc34)c3ccccc3nc2c1`, for which the IC50 was determined as 0.71 µM in experiment [1], 1.03 µM in experiment [2], 1.39 µM in experiment [3] and 0.21 µM in experiment [4].

Take `O=C(NC1CCN(Cc2ccccc2)CC1)c1cc(-c2cccnc2)nc2ccc(Cl)cc12`: the IC50 was above 25 µM in experiment [1], 13.9 µM in experiment [2], 0.48 µM in experiment [3] and 0.071 µM in experiment [4].

Turning to `CCCCNCC(O)(c1ccc(Cl)cc1)c1ccc(Cl)cc1`, the IC50 was found to be 15.5 µM in experiment [1], 0.078 µM in experiment [2], 1 µM in experiment [3] and 5.35 µM in experiment [4].

As for `CC(C)(C)CC(C)(C)NCC(O)COc1ccc2c(c1)CCC2` (stereo not drawn), the IC50 turned out to be 10 µM in experiment [1], 0.6 µM in experiment [2], 2.45 µM in experiment [3] and 6.81 µM in experiment [4].

For `Cc1ccc2cc3c(N)c4c(C)ccc(C)c4nc3nc2c1`, the IC50 in experiment [1] stood at 2.63 µM; in experiment [2], 4.27 µM; in experiment [3] it was 4.52 µM; in experiment [4], 7.26 µM.

As for `CCCCCCn1c(=N)n(CC(O)COc2cccc(C)c2)c2ccccc21` (stereo not drawn), the IC50 was found to be 0.083 µM in experiment [1], 2.95 µM in experiment [2], 3.73 µM in experiment [3] and 15.9 µM in experiment [4].

As to `O=C(Nc1ccc(C23CC4CC(CC(c5ccccc5)(C4)C2)C3)cc1)c1cccs1`, the IC50 in experiment [1] stood at 8.1 µM; in experiment [2], 10.4 µM; in experiment [3], 15.2 µM; in experiment [4], 16.8 µM.

As for `OCCNc1nc(Nc2ccc(Cl)c(Cl)c2)nc2ccccc12`, the IC50 turned out to be 0.52 µM in experiment [1], 3.34 µM in experiment [2], 1.39 µM in experiment [3] and 0.1 µM in experiment [4].

Turning to `Cn1c(=O)n(C)c2cc(CNCCNc3ccnc4cc(Cl)ccc34)ccc21`, the IC50 turned out to be 0.071 µM in experiment [1], 0.081 µM in experiment [2], 0.1 µM in experiment [3] and 0.489 µM in experiment [4].

As to `Cc1cc(Nc2ccc(C)c(Cl)c2)n2nc(C(F)(F)F)nc2n1`, the IC50 in experiment [1] is 15 µM; in experiment [2], 14.8 µM; in experiment [3], above 25 µM; in experiment [4], 0.69 µM.

On to `COc1cccc(Nc2nc(NCCO)c3ccccc3n2)c1`, for which the IC50 in experiment [1] was found to be 6.99 µM; in experiment [2], 1 µM; in experiment [3], 4.09 µM; in experiment [4] it was 1.3 µM.

In the case of `Cc1cc(N2CCN(C3CCCC3)CC2)n2c(nc3ccccc32)c1C#N`, the half-maximal inhibitory concentration (IC50) in experiment [1] was found to be 0.75 µM; in experiment [2] it was 0.1 µM; in experiment [3], 0.065 µM; in experiment [4], 0.38 µM.

In the case of `O=C(CSc1ccc2nnc(-c3cccc(F)c3)n2n1)Nc1ccc2c(c1)OCO2`, the IC50 in experiment [1] is 11.9 µM; in experiment [2], 20.2 µM; in experiment [3], 12.9 µM; in experiment [4], 18.2 µM.

As to `O=C(NC1CCCC1)c1ccc(N2CCC(NCc3cccc(C(F)(F)F)c3)CC2)cc1`, the IC50 in experiment [1] is 14 µM; in experiment [2], 25 µM; in experiment [3] it was 10 µM; in experiment [4] it was 13.4 µM.

In the case of `COc1ccccc1N1CCN(C(CNS(=O)(=O)c2ccc(Cl)cc2)c2cccnc2)CC1` (stereo not drawn), the IC50 came out at 0.669 µM in experiment [1], 2.16 µM in experiment [2], 17.2 µM in experiment [3] and 13.5 µM in experiment [4].

Consider `CC(=O)NCCc1nc2ccccc2n1Cc1ccc(C(C)C)cc1`, for which the IC50 in experiment [1] came out at 7.96 µM; in experiment [2], 8.2 µM; in experiment [3], 1 µM; in experiment [4], 10 µM.

Turning to `COc1cc2c(cc1OC)C1=NNC(=O)C1=NC(C)(C)C2`, the IC50 amounted to 6.8 µM in experiment [1], 12.9 µM in experiment [2], 3.61 µM in experiment [3] and 4.48 µM in experiment [4].

Regarding `CCCCCCC(O)(c1ccc(F)cc1)C(CN1CCOCC1)c1ccccc1` (stereo not drawn), the concentration for half-maximal inhibition (IC50) worked out at 2.63 µM in experiment [1], 9.87 µM in experiment [2], 10 µM in experiment [3] and 0.29 µM in experiment [4].

With `COc1cc2c3cc1Oc1c(OC)c(OC)cc4c1C(Cc1ccc(O)c(c1)Oc1ccc(cc1)CC3N(C)CC2)N(C)CC4` (stereo not drawn), the IC50 came to 0.068 µM in experiment [1], 10 µM in experiment [2], 0.26 µM in experiment [3] and 3.86 µM in experiment [4].

Consider `CC(C)c1ccc(CNCC(O)c2ccccc2)cc1` (stereo not drawn), for which the IC50 in experiment [1] was 14.3 µM; in experiment [2] it was above 25 µM; in experiment [3], 10 µM; in experiment [4] it was 12.4 µM.

`FC(F)(F)c1cccc(Nc2nc(-c3ccccc3)nc3ncccc23)c1`: the IC50 in experiment [1] was 6.8 µM; in experiment [2], 4.48 µM; in experiment [3], 16 µM; in experiment [4], 12 µM.

For `CCCOCc1cc(CN2CCN(c3cccc(Cl)c3)CC2)c(O)c2ncccc12`, the IC50 in experiment [1] was 1.74 µM; in experiment [2], 3.86 µM; in experiment [3], 2.95 µM; in experiment [4] it was 5.9 µM.

In the case of `COc1ccc(-c2nc(NC(=O)CS(=O)(=O)c3ccc(F)cc3)sc2C)cc1`, the half-maximal inhibitory concentration (IC50) was 17.9 µM in experiment [1], 17 µM in experiment [2], 13.4 µM in experiment [3] and 14.6 µM in experiment [4].

With `CCn1c(SCC(=O)Nc2cc(C(F)(F)F)ccc2Cl)nc2ccccc2c1=O`, the IC50 worked out at 25 µM in experiment [1], 3.32 µM in experiment [2], 15.8 µM in experiment [3] and 14.8 µM in experiment [4].

As to `CCOc1ccccc1CNC(=O)C1c2ccccc2C(=O)N(CC(C)C)C1c1cccs1` (stereo not drawn), the IC50 was found to be 0.83 µM in experiment [1], 0.1 µM in experiment [2], 12.4 µM in experiment [3] and 14.3 µM in experiment [4].

As to `O=C1c2ccccc2-c2nnc(-c3ccc(Br)cc3)cc21`, the IC50 was found to be 0.86 µM in experiment [1], 0.77 µM in experiment [2], 10.1 µM in experiment [3] and 18.1 µM in experiment [4].

`O=C(NC1CCN(Cc2ccccc2)CC1)c1cc(-c2ccncc2)nc2ccc(Cl)cc12`: the IC50 in experiment [1] was determined as 3.99 µM; in experiment [2], 7.3 µM; in experiment [3], 0.39 µM; in experiment [4] it was 0.076 µM.

In the case of `COc1ccccc1CNC(=O)CCn1c(=O)[nH]c2ccccc2c1=O`, the IC50 came out at 19.5 µM in experiment [1], 3.9 µM in experiment [2], 14.2 µM in experiment [3] and 4.38 µM in experiment [4].

Consider `O=C(Nc1ccc(CN2CCOCC2)cc1)c1ccc(-c2cc(Cl)ccc2Cl)o1`, for which the half-inhibitory concentration (IC50) in experiment [1] came to 25 µM; in experiment [2], 10 µM; in experiment [3], 10 µM; in experiment [4], 0.069 µM.

As for `COc1ccc(C(=O)C2CC2c2ccc(Cl)cc2)cc1` (stereo not drawn), the IC50 turned out to be 5.97 µM in experiment [1], 6.72 µM in experiment [2], 16.1 µM in experiment [3] and 14.6 µM in experiment [4].

For `CCCc1c(C)nc2ccccc2c1O`, the IC50 in experiment [1] turned out to be 15.3 µM; in experiment [2], 2.96 µM; in experiment [3] it was 2.4 µM; in experiment [4], 3.7 µM.

For the compound `COc1cc(SC)ccc1C(=O)N1CCCC(C)C1` (stereo not drawn), the 50% inhibitory concentration (IC50) is 19.4 µM in experiment [1], above 25 µM in experiment [2], 5.79 µM in experiment [3] and 12.3 µM in experiment [4].

On to `O=C1CC(O)(C(F)(F)C(F)(F)F)Oc2ccccc21` (stereo not drawn), for which the IC50 in experiment [1] is above 25 µM; in experiment [2] it was 16.3 µM; in experiment [3] it was 0.65 µM; in experiment [4], 0.8 µM.

As for `Cc1ccc(C2CC(C(F)(F)F)n3nc(C(=O)N4CCN(C(c5ccccc5)c5ccccc5)CC4)cc3N2)cc1` (stereo not drawn), the IC50 in experiment [1] came to 9.55 µM; in experiment [2] it was 15.9 µM; in experiment [3], 12.6 µM; in experiment [4] it was 0.98 µM.

Take `O=C(Nc1ccccc1O)c1ccc(-c2ccc(Cl)cc2Cl)o1`: the IC50 was determined as 4.65 µM in experiment [1], 19 µM in experiment [2], 12.5 µM in experiment [3] and 6.51 µM in experiment [4].

With `Cc1cc(NC(=O)C2c3ccccc3C(=O)N(CC(C)C)C2c2cccs2)no1` (stereo not drawn), the IC50 in experiment [1] amounted to 12.6 µM; in experiment [2], 2.57 µM; in experiment [3], 3 µM; in experiment [4] it was 13 µM.

For `COc1ccccc1N1C(=N)SC(=Cc2ccc(OCc3ccccc3F)cc2)C1=O`, the IC50 came out at 18.6 µM in experiment [1], 10 µM in experiment [2], 16.1 µM in experiment [3] and 17.1 µM in experiment [4].

Consider `CCOc1ccc(C2N(C)c3ccccc3N2C)cc1`, for which the IC50 in experiment [1] worked out at 5.5 µM; in experiment [2], 0.85 µM; in experiment [3], 3.53 µM; in experiment [4] it was 0.5 µM.

In the case of `Cc1ccc(Nc2nc(NCCO)c3ccccc3n2)cc1C`, the half-maximal inhibitory concentration (IC50) in experiment [1] stood at 3.63 µM; in experiment [2], 6.36 µM; in experiment [3] it was 2.2 µM; in experiment [4], 5 µM.
